Data from patent US8802675B2, “Neuroprotective multifunctional compounds and pharmaceutical compositions comprising them” (priority 2009, dated 2014).

Legend:
[1] = target: T1, butyrylcholinesterase (BuChE) (Rattus norvegicus, UniProt Q9JKC1); test: Butyrylcholinesterase inhibition in rat brain homogenates (Ellman); assay type: biochemical; settings: mean SEM, n=3 in triplicates
T1 construct: total cholinesterase (ChE) and butyrylcholinesterase (BuChE) activities in rat brain homogenates; from tissue; host or cells: brain homogenate (10% w/v) of adult Wistar rats
T1 sequence (Q9JKC1 24-597): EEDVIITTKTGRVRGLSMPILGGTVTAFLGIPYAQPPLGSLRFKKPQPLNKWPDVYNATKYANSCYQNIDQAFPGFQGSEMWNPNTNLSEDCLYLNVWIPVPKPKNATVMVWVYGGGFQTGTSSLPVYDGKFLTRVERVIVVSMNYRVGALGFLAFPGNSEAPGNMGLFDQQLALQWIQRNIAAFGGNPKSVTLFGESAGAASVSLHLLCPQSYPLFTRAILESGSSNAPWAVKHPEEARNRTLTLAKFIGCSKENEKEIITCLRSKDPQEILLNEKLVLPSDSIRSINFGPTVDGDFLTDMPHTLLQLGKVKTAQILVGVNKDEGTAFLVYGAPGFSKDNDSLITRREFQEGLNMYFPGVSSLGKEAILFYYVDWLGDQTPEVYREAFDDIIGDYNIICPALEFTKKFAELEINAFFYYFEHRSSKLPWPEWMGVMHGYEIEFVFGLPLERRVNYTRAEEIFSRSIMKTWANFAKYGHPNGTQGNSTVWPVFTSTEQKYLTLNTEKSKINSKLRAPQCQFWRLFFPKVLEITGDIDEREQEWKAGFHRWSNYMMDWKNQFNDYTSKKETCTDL
Method: Cholinesterase activity was determined in rat brain homogenate following incubation with varying concentrations of the multifunctional pro-chelators of the invention (also referred to herein as “carbamates”).
Ellman's colorimetric method was adapted for determination of total cholinesterase (ChE) and butyrylcholinesterase (BuChE) activities in rat brain homogenates. Brain tissue from adult Wistar rats was homogenized at 2% w/v (or 10% w/v, for BuChE) in 0.1 M sodium phosphate buffer, pH 7.4, with added NaCl 58.5 g/l and Triton X-100 0.05% v/v. Aliquots of homogenate (20 μl) were incubated with the test compounds for designed time intervals in phosphate buffer pH 7.4, before addition of 5,5′-dithiobis(2-nitrobenzoic) acid and either 1 mM acetylthiocholine iodide or 10 mM butyrylthiocholine iodide (Sigma, St. Louis, Mo.). The reaction was run at 37° C. in a final volume of […] in 96-well microplates and was followed at 412 nm for 5 min with a plate reader. In every experiment, cholinesterase-independent (nonspecific) substrate hydrolysis was determined by including one experimental group treated with tacrine 30 μM. Appropriate tissue and reagent blanks were also included. Reaction velocities were determined in three or four replicates per condition; these were averaged and expressed as percent activity relative to control (solvent), after subtracting the rate of nonspecific hydrolysis.
The results are the mean SEM, n=3 in triplicates. ND—not determined.

[2] = system: ChE from rat brain homogenates; test: Time course of total ChE inhibition at 1 μM versus rivastigmine; assay type: biochemical; settings: for preincubation time to maximum (peak) inhibition on total ChE: 1 μM compound; for ChE inhibition compared with rivastigmine and other carbamates: 1 μM, time course
Method: The new carbamates of the present invention are expected to act as rivastigmine and inhibit ChE activity. […] Enzyme activity was determined with Ellman's colorimetric method after addition of substrate, and the results are shown in FIGS. 8A-8B.

[3] = Metal chelation assay (UV-vis spectra of metal complexes); assay type: physicochemical; settings: 5% NH4Ac, pH=7; for complexation with Cu^2+ or Zn^2+: CuSO4 or ZnCl2, UV-vis; for interaction with Fe: FeCl3 or FeSO4, absorbance at 300 nm
Source text: Metal chelation, particularly iron chelation, is an important precondition for the antioxidative-function of the multi-functional compounds of the invention, because it is the excessive iron stores and iron-mediated generation of free radicals in the brain that are thought to be associated with neurodegenerative diseases. The novel strategy, according to the present invention, for the treatment of neurodegenerative diseases such as Alzheimer's disease is the design of pro-chelators that inhibit AChE with a concomitant release of the active chelators. This novel strategy has advantages over the current chelator strategy since it is capable not only of minimizing the potential toxicity associated with strong chelators such as the 8-hydroxyquinoline derivatives disclosed in WO 2004/041151, which might interfere with healthy metal metabolism in the brain, but it also offers multiple activities against AChE, Aβ aggregation, oxidative stress, and metal (Fe, Cu, Zn) dyshomeostasis in the brain. Therefore, a metal chelation assay was used to confirm that the new multifunctional pro-chelators that comprise an N,N-dialkylcarbamoyl moiety [N(RR′)CO—] linked to the oxygen at position 8 of quinoline would have little to no affinity for metal ions in their pro-drug form. When these pro-chelators bind to cholinesterase or AChE in the brain, the N,N-dialkylcarbamoyl moiety is dissociated, thus unmasking a free hydroxyl group at said position 8 of quinoline, turning the pro-chelators into active chelators, which passivate excess cerebral metal ions and protect neuronal cells against reactive oxygen species (ROS).
A spectrophotometric method was used for measurement of metal complexes of the multifunctional pro-chelators of the invention with metal ions selected from Zn^2+, Cu^2+, Fe^3+ and Fe^2+, and compared to the respective metal complexes of some known iron chelators disclosed in WO 2004/041151.
Thus, the metal chelating function of compound 13 and compound 23 as compared to M30 and HLA20, respectively, was measured by dissolving 0.1 mM or 0.2 mM of the test compounds in 5% NH4Ac, pH=7, in the presence and absence of 0.1 mM or 0.2 mM of the metal salts […], CuSO4, FeCl3 and FeSO4, and measuring the UV-vis spectra (Hewlett-Packard 8450A diode array spectrophotometer) of the various metal complexes formed. The results for M30 and compound 13 are shown in FIGS. 1A and 1B, respectively.

[4] = system: human SH-SY5Y neuroblastoma cells; test: MTT cell viability assay in SH-SY5Y cells; assay type: cell-based; settings: MTT after 48 h incubation
Method: Cell culture. Human neuroblastoma SH-SY5Y cells were obtained from American Type Culture Collection (Rockville, Md., USA). Cells were routinely cultured in MEM-Eagle/F-12(HAM) (1:1), containing 10% FCS and a mixture of 2% sodium bicarbonate, 1% penicillin/streptomycin/nystatin and 1% sodium pyruvate. Cell cultures were incubated at 37° C. in a humid 5% CO2-95% air environment.
Twenty-four hours after attachment of the SH-SY5Y cells, the medium was replaced with DMEM containing 0.1% BSA. The test compounds were added to the cells after 1 h of incubation. After 24 h incubation, the cells were subjected to MTT test as previously described (Gassen et al., 1998). The absorption was determined in a Perkin-Elmer Dual Wavelength Eliza-Reader at λ=570/650 nm after automatic subtraction of background readings. The results are expressed as percentage of the untreated control.
The effect of the iron chelators M30 and HLA20 versus that of the pro-chelators 13 and 23, on viability of human SH-SY5Y cells was tested. Human SH-SY5Y neuroblastoma cells were plated in 100-mm culture dishes and cultured in DMEM (4,500 mg/l glucose), containing 10% FCS (fetal calf serum, Bet Haemek, Israel), and 1% of a mixture of penicillin/streptomycin/nystatin. When cells reached the required confluence, they were detached and re-cultured in microtiter plates (96 wells) pre-coated with collagen ([…]), in DMEM with 10% of fetal calf serum (0.5×10^4 cells/well). Cell viability was tested by the 3-(4,5-dimethylthiazol-2-yl)-2,5-diphenyltetrazolium (MTT) assays after 48 h incubation.

SMILES | IC50 [1] [µM] | preincubation time to maximum (peak) inhibition on total ChE [2] [h] | ChE inhibition compared with rivastigmine and other carbamates [2] | complexation with Cu^2+ or Zn^2+ [3] | interaction with Fe [3] | cell viability ([4]; 10 μM) | cell viability ([4]; 25 μM) | cell viability ([4]; 50 μM) [%] | binding of metal ions (shift of absorbance peak) ([3]; ZnCl2, CuSO4, FeCl3 and FeSO4)
C#CCN(C)Cc1ccc(OC(=O)N(C)CC)c2ncccc12 [Compound 3, 5-((methyl(propargyl)amino)methyl)quinolin-8-yl ethyl(methyl)carbamate] | 60.7 ± 5.33 | ≤ 1.5 | far less potent than the other carbamates |  |  |  |  |  | 
C#CCN(C)Cc1ccc(OC(=O)N2CCCC2)c2ncccc12 [Compound 5, 5-((methyl(propargyl)amino)methyl)quinolin-8-yl pyrrolidine-1-carboxylate] | 31.2 ± 6.1 | ≤ 3 | far less potent than the other carbamates |  |  |  |  |  | 
C#CCN(C)Cc1ccc(OC(=O)N2CCN(Cc3ccccc3)CC2)c2ncccc12 [Compound 13, 5-((methyl(propargyl)amino)methyl)quinolin-8-yl 4-benzyl piperazine-1-carboxylate] | 46 ± 3.5 |  | as potent as rivastigmine | little or no complexation | weak interaction | similar | significantly higher |  | 
C#CCC1CCN(Cc2ccc(OC(=O)N(C)C)c3ncccc23)CC1 [Compound 23, 5-((4-(propargyl)piperidin-1-yl)methyl)quinolin-8-yl dimethylcarbamate] | 42.6 ± 6.67 | 2 | increasingly greater inhibition | little or no complexation | weak interaction | over 75% | over 75% | 40 | 
C#CCN(C)Cc1ccc(O)c2ncccc12 [M30, reference compound] |  |  |  |  |  | similar |  |  | binds the respective metal ions
